The values that follow come from US9630977B2, “Cephalosporin derivatives and pharmaceutical compositions thereof” (Legochem Biosciences, Inc., priority 2011, dated 2017).

≈ marks a conversion by molar mass, not a printed value. Where two headings read alike, the source gives them in different places.

Experiment in all cases: In vitro antibacterial activity test (broth microdilution)
Assay type in all cases: cell-based
In general terms: Broth dilution looks for growth in wells or tubes with falling amounts of substance.

For one experiment, the system named is K. pneumoniae β14. On the procedure:
(§1) To evaluate antibacterial activity of each of the compounds of Examples 1 to 68, in vitro antibacterial activity test was performed.
(§2) The in vitro antibacterial activity was evaluated by measuring MIC90 (ug/mL) of each of the compounds of Examples 1 to 68, which is defined as the lowest concentration of an antibiotic that will inhibit the visible growth of 90% of microorganisms after incubation as compared with a control group to which the antibiotic is not treated. MIC90 values were measured by the broth microdilution method developed by the Clinical and Laboratory Standards Institute (CLSI) (see CLSI M7-A5, Methods for Dilution Antimicrobial Susceptibility Test for Bacteria that Grow Aerobically-Fifth Edition (2000): CLSI, Villanova, Pa.).
(§3) In vitro antibacterial activity was measured with respect to the following 19 clinical isolates: M. catarrhalis; P. aeruginosa (5 strains); K. pneumoniae (6 strains); A. baumannii (3 strains); E. coli (2 strains); A. calcoaceticus; and E. cloacae.
(§4) Test compounds each (the cephalosporin derivative compounds prepared in Examples 1 to 68) were dissolved in DMSO at the concentration of 10,240 ug/mL, were diluted by two fold with DMSO, and then were diluted by twenty fold with sterilized distilled water. The final concentration in the antibacterial activity test was in the range of […] to 128 ug/mL, and the final concentration of DMSO used as an adjuvant was 2.5% (V/V).

A further experiment relates to P. aeruginosa 40. On the procedure:
as §1, §2, §3, §4

The test system of another experiment is P. aeruginosa 1912E. The method, then: as §1, §2, §3, §4
A further experiment concerns A. baumannii 49. The method, then:
as §1, §2, §3, §4

Another experiment deals with E. coli β4. The method, then:
as §1, §2, §3, §4

For experiment [1], the system named is A. calcoaceticus ATCC15473. The method, then:
as §1, §2, §3, §4

The test system of another experiment is P. aeruginosa 37. On the procedure: as §1, §2, §3, §4
Another experiment concerns A. baumannii 52. On the procedure:
as §1, §2, §3, §4

The test system of the next experiment is K. pneumoniae 2011E. The method, then:
as §1, §2, §3, §4

The test system of a further experiment is P. aeruginosa 6065Y. On the procedure:
as §1, §2, §3, §4

The next experiment concerns E. coli AG100. The method, then: as §1, §2, §3, §4
For a further experiment, the system named is E. cloacae β19. On the procedure: as §1, §2, §3, §4
A further experiment relates to P. aeruginosa 43. The note with it: Pseudomonas aeruginosa. On the procedure:
as §1, §2, §3, §4

Another experiment deals with A. baumannii 46. On the procedure: as §1, §2, §3, §4
The mark [2] stands for this setting: Klebsiella pneumoniae, read-out: MIC90.
The mark [3] stands for this setting: Pseudomonas aeruginosa, 40, P. aeruginosa 40, read-out: MIC90.
Setting [4] is: Pseudomonas aeruginosa, 1912E, read-out: MIC90.
The mark [5] stands for this setting: Acinetobacter baumannii, A. baumannii 49, read-out: MIC90.
Setting [6] is: Escherichia coli, read-out: MIC90.
Setting [7] is: Acinetobacter calcoaceticus, A. calcoaceticus ATCC15473, read-out: MIC90.
Where [8] appears, read: Pseudomonas aeruginosa, 37, P. aeruginosa 37, read-out: MIC90.
[9] abbreviates: Acinetobacter baumannii, A. baumannii 52, read-out: MIC90.
Where [10] appears, read: Klebsiella pneumoniae, 2011E, K. pneumoniae 2011E, read-out: MIC90.
Where [11] appears, read: Pseudomonas aeruginosa, read-out: MIC90.
The mark [12] stands for this setting: Escherichia coli, AG100, E. coli AG100, read-out: MIC90.
Where [13] appears, read: Enterobacter cloacae, read-out: MIC90.
The mark [14] stands for this setting: Acinetobacter baumannii, A. baumannii 46, read-out: MIC90.
Where [15] appears, read: Acinetobacter baumannii, 49, A. baumannii 49.
[16] abbreviates: Acinetobacter calcoaceticus, ATCC15473, A. calcoaceticus ATCC15473.
[17] abbreviates: Pseudomonas aeruginosa, 37, P. aeruginosa 37.
[18] abbreviates: Acinetobacter baumannii, 46, A. baumannii 46.

One may read the MIC90 as the lowest concentration that inhibits either 90% of growth or 90% of the strains tested, depending on the study. For `CNc1nc[n+](CC2=C(C(=O)[O-])N3C(=O)[C@@H](NC(=O)/C(=N\OC(C)(C)C(=O)O)c4csc(N)n4)C3SC2)cc1N` (some centres unmarked) [Compound 39], the MIC90 with K. pneumoniae β14 (setting [2]) was 8 µg/mL (≈ 13.5 µM); with P. aeruginosa 40 (setting [3]) it was 32 µg/mL (≈ 54.1 µM); with P. aeruginosa 1912E (setting [4]), 8 µg/mL (≈ 13.5 µM); in the experiment on A. baumannii 49 (setting [5]) it was greater than 128 µg/mL; in the experiment with E. coli β4 (setting [6]), 16 µg/mL (≈ 27 µM); in [1] (setting [7]), 8 µg/mL (≈ 13.5 µM). Besides, the MIC90 in the experiment with P. aeruginosa 37 (setting [8]) is 128 µg/mL (≈ 216 µM); in the experiment with A. baumannii 52 (setting [9]) it was greater than 128 µg/mL; in the experiment with K. pneumoniae 2011E (setting [10]), 1 µg/mL (≈ 1.69 µM); in the experiment with P. aeruginosa 6065Y (setting [11]), 128 µg/mL (≈ 216 µM); in the experiment on E. coli AG100 (setting [12]) it was 1 µg/mL (≈ 1.69 µM); in the experiment with E. cloacae β19 (setting [13]), 128 µg/mL (≈ 216 µM). For the same compound, the MIC90 in the experiment on P. aeruginosa 43 (P. aeruginosa 43, read-out: MIC90) came to 4 µg/mL (≈ 6.76 µM); in the experiment on A. baumannii 46 (setting [14]) it was 8 µg/mL (≈ 13.5 µM).
With `CC(C)(O/N=C(\C(=O)N[C@@H]1C(=O)N2C(C(=O)[O-])=C(C[n+]3cnc(N)c(NCCNC(=N)N)c3)CSC12)c1csc(N)n1)C(=O)O` (some centres unmarked) [Compound 40], the MIC90 against K. pneumoniae β14 (Klebsiella pneumoniae) was 8 µg/mL (≈ 12.1 µM); in the experiment with P. aeruginosa 40 (Pseudomonas aeruginosa, 40) it was 8 µg/mL (≈ 12.1 µM); against P. aeruginosa 1912E (Pseudomonas aeruginosa, 1912E) it was 4 µg/mL (≈ 6.04 µM); with A. baumannii 49 (setting [15]), 128 µg/mL (≈ 193 µM); with E. coli β4 (Escherichia coli) it was 8 µg/mL (≈ 12.1 µM); in [1] (setting [16]) it was 0.25 µg/mL (≈ 0.377 µM). Moreover, the MIC90 against P. aeruginosa 37 (setting [17]) stood at 8 µg/mL (≈ 12.1 µM); in the experiment with A. baumannii 52 (Acinetobacter baumannii, 52) it was 128 µg/mL (≈ 193 µM); in the experiment with K. pneumoniae 2011E (Klebsiella pneumoniae, 2011E), 16 µg/mL (≈ 24.1 µM); against P. aeruginosa 6065Y (Pseudomonas aeruginosa, 6065Y), 16 µg/mL (≈ 24.1 µM); against E. coli AG100 (Escherichia coli, AG100), 4 µg/mL (≈ 6.04 µM); against E. cloacae β19 (Enterobacter cloacae) it was 32 µg/mL (≈ 48.3 µM). For the same compound, the MIC90 worked out at 32 µg/mL (≈ 48.3 µM) against P. aeruginosa 43 (43) and 2 µg/mL (≈ 3.02 µM) against A. baumannii 46 (setting [18]).
For the compound `CC(C)(O/N=C(\C(=O)N[C@@H]1C(=O)N2C(C(=O)[O-])=C(C[n+]3cnc(N)c(NC(=O)CCN)c3)CSC12)c1csc(N)n1)C(=O)O` (some centres unmarked) [Compound 48], the MIC90 against K. pneumoniae β14 (Klebsiella pneumoniae) was 16 µg/mL (≈ 24.7 µM); against P. aeruginosa 40 (Pseudomonas aeruginosa, 40) it was 8 µg/mL (≈ 12.3 µM); in the experiment on P. aeruginosa 1912E (Pseudomonas aeruginosa, 1912E), 8 µg/mL (≈ 12.3 µM); against A. baumannii 49 (setting [15]) it was 128 µg/mL (≈ 197 µM); against E. coli β4 (Escherichia coli), 2 µg/mL (≈ 3.08 µM); in experiment [1] (setting [16]), 0.5 µg/mL (≈ 0.771 µM). Further, the MIC90 was 64 µg/mL (≈ 98.7 µM) against P. aeruginosa 37 (setting [17]); 128 µg/mL (≈ 197 µM) with A. baumannii 52 (Acinetobacter baumannii, 52); 4 µg/mL (≈ 6.17 µM) with K. pneumoniae 2011E (Klebsiella pneumoniae, 2011E); 16 µg/mL (≈ 24.7 µM) in the experiment with P. aeruginosa 6065Y (Pseudomonas aeruginosa, 6065Y); 2 µg/mL (≈ 3.08 µM) with E. coli AG100 (Escherichia coli, AG100); 128 µg/mL (≈ 197 µM) against E. cloacae β19 (Enterobacter cloacae). The compound further returned an MIC90 in the experiment with A. baumannii 46 (setting [18]) of 8 µg/mL (≈ 12.3 µM).
With `CC(C)(O/N=C(\C(=O)N[C@@H]1C(=O)N2C(C(=O)[O-])=C(C[n+]3cnc(N)c(NCCN)c3)CSC12)c1csc(N)n1)C(=O)O` (some centres unmarked) [Compound 49], the MIC90 against K. pneumoniae β14 was 32 µg/mL (≈ 51.6 µM); with P. aeruginosa 40 (P. aeruginosa 40) it was 4 µg/mL (≈ 6.44 µM); in the experiment on P. aeruginosa 1912E, 2 µg/mL (≈ 3.22 µM); in the experiment on A. baumannii 49 (A. baumannii 49) it was 64 µg/mL (≈ 103 µM); against E. coli β4, 8 µg/mL (≈ 12.9 µM); in [1] (A. calcoaceticus ATCC15473), 2 µg/mL (≈ 3.22 µM). Further, the MIC90 stood at 8 µg/mL (≈ 12.9 µM) in the experiment on P. aeruginosa 37 (P. aeruginosa 37); 64 µg/mL (≈ 103 µM) with A. baumannii 52 (A. baumannii 52); 8 µg/mL (≈ 12.9 µM) against K. pneumoniae 2011E (K. pneumoniae 2011E); 16 µg/mL (≈ 25.8 µM) in the experiment on P. aeruginosa 6065Y; 4 µg/mL (≈ 6.44 µM) in the experiment with E. coli AG100 (E. coli AG100); 32 µg/mL (≈ 51.6 µM) against E. cloacae β19. For the same compound, the MIC90 against P. aeruginosa 43 (43) was greater than 128 µg/mL; against A. baumannii 46 (A. baumannii 46), 8 µg/mL (≈ 12.9 µM).
For `CC(=O)Nc1c[n+](CC2=C(C(=O)[O-])N3C(=O)[C@@H](NC(=O)/C(=N\OC(C)(C)C(=O)O)c4csc(N)n4)C3SC2)cnc1N` (some centres unmarked) [Compound 68], the MIC90 was 32 µg/mL (≈ 51.6 µM) with K. pneumoniae β14 (setting [2]); 4 µg/mL (≈ 6.46 µM) in the experiment with P. aeruginosa 40 (setting [3]); 4 µg/mL (≈ 6.46 µM) in the experiment on P. aeruginosa 1912E (setting [4]); 128 µg/mL (≈ 207 µM) in the experiment with A. baumannii 49 (setting [5]); 8 µg/mL (≈ 12.9 µM) in the experiment with E. coli β4 (setting [6]); 1 µg/mL (≈ 1.61 µM) in [1] (setting [7]). In addition, the MIC90 with P. aeruginosa 37 (setting [8]) is 128 µg/mL (≈ 207 µM); in the experiment on A. baumannii 52 (setting [9]), 128 µg/mL (≈ 207 µM); in the experiment with K. pneumoniae 2011E (setting [10]) it was 1 µg/mL (≈ 1.61 µM); with P. aeruginosa 6065Y (setting [11]), 16 µg/mL (≈ 25.8 µM); in the experiment on E. coli AG100 (setting [12]) it was 0.5 µg/mL (≈ 0.807 µM); with E. cloacae β19 (setting [13]) it was 128 µg/mL (≈ 207 µM). In addition, the MIC90 in the experiment with A. baumannii 46 (setting [14]) came to 8 µg/mL (≈ 12.9 µM).
